Results taken from patent publication EP0218359A1, “Conditioning natural gas streams with preferential physical solvents” (EL PASO HYDROCARBONS COMPANY, priority 1985, dated 1987).

Experiments:
Format in all cases: physicochemical
[1] = relative volatility of methane over ethane in the presence of the solvent
Excerpt: (§1) The preferential factor for physical solvent selection for the Mehra Process is defined as a product of relative volatility of methane over ethane multiplied by the solubility of ethane in physical solvents, specified as normal cubic meters of ethane per cubic meter of solvent.

[2] = solubility of hydrocarbons in the solvent (hydrocarbon loading capacity); conditions: normal cubic meters of gaseous hydrocarbons per cubic meter of the solvent
Excerpt: as §1

[3] = preferential factor (relative volatility of methane over ethane multiplied by solubility of ethane in solvent); conditions: relative volatility of methane over ethane x solubility of ethane in solvent
Excerpt: The preferential physical solvents are defined for the purposes of this invention as having a minimum relative volatility of methane over ethane of at least 5.0 (thereby defining its improved selectivity toward ethane over methane) and in addition a solubility of at least 1.77 normal cubic meters of gaseous hydrocarbons per cubic meter of the solvent (Nm^3/m^3) (thereby defining its hydrocarbon loading capacity), or, alternatively, a preferential factor of at least 8.85. The preferential factor for physical solvent selection for the Mehra Process is defined as a product of relative volatility of methane over ethane multiplied by the solubility of ethane in physical solvents, specified as normal cubic meters of ethane per cubic meter of solvent. […] This combination of minimum relative volatility and minimum solubility enables solvent flow rate variations and operating pressure and temperature variations to be selectively 'utilized in the Mehra Process for flexibly producing liquid products having selected hydrocarbon compositions.
Relative Volatilities of Ethane/Methane, Solubilities of Ethane in Solvent, and combined Preferential Factors are given in the following Table II for NMP, DMF, a common lean oil, the minimum solvent having desired requirements for Mehra Process applications, DMPEG, mesitylene, and the ideal solvent in the Mehra Process. […]

Compound	relative volatility for methane with respect to ethane [1]	solubility of hydrocarbons [2] [Nm^3/m^3]	preferential factor [3]
dimethyl ether of polyethylene glycol [DMPEG]	6.4	7.0	45
CN1CCCC1=O [NMP, N-methyl pyrrolidone]	5.3	0.2	1.1
